Test results published in US6761896B1, “Skin cosmetic care system and method” (Unilever Home & Personal Care USA, division of Conopco, Inc., priority 1998, dated 2004).

Tested on: pig skin dermis
Test: DNA synthesis (3H-thymidine) of pig skin organ cultures, dermis
Assay type: cell-based
Method: Freshly excised 2-3 week old piglet skins were obtained from Buckshire Farms, Pa. The pig skins were washed exhaustively first with soap and then with 10× antibiotic containing medium (penicillin, streptomycin). The pig skins were then dermatomed at 200 microns thickness. Seven (7) mm punch biopsies were made from these washed pig skins. The biopsies are then washed again with the 10× antibiotic medium and finally with normal DMEM (2 washes). Three (3) biopsies were incubated in each transwell plates, epidermal side up, with 1 ml of serum free DMEM fed from the bottom of the plates. Experiments were started 3 days after the biopsies were equilibrated under these conditions. Three (3) days after equilibrating the pig skin organ cultures prepared as described above, the medium was removed, 1 ml of fresh medium was added, and the wells were treated with different concentrations of lactic acid by adding from a 100 fold concentrated stock in water, directly into the medium. Simultaneous with the addition of lactic acid, selected cultures were also exposed to the South or North pole of a bar magnet or to the Bioflex magnet. The magnets were placed on top of the culture dish to expose the epidermis directly (the organ culture is carried out with the epidermis side on top). Three (3) days later, medium was changed, lactic acid was re-added, and 10 uCi ^3H-thymidine was added to each well. Plates were incubated for a further 24 hrs. At the end of the incubation period, biopsies were removed, washed in PBS for 1 hr with shaking, and incubated overnight in 10 ml of 2M sodium bromide with shaking to split the epidermis from the dermis. The biopsies were washed with PBS, and the epidermis was peeled off from dermis carefully using a scalpel. The epidermis and dermis were digested with 1 ml of 0.5N NaOH overnight at 50 C, 200 ul was used for counting the radioactivity. The DNA synthesis rate was calculated as cpm/7 mm punch biopsy for dermis or epidermis and in some experiments expressed also as % of controls. All organ culture experiments were conducted with at least 6 replicates, and the mean+/−standard deviation was calculated for statistical analysis using Students t-test. In example 7, dermal proliferation was measured as a function of lactic acid and magnetic pole treatment.

[1] = Example 7, dermis, LA + North pole
[2] = Example 7, dermis, LA + South pole

Compound: CC(O)C(=O)O (centres unmarked) [LA, lactic acid]
- DNA SYNTHESIS (CPM/BIOPSY) MEAN +/- STD (Example 7, dermis, 0.2 mM LA, no magnet): 15306 +/− 4656 CPM/BIOPSY
- DNA SYNTHESIS (CPM/BIOPSY) MEAN +/- STD [1]: 16886 +/− 2227 CPM/BIOPSY
- DNA synthesis AS % OF CONTROL [1]: 178%
- DNA SYNTHESIS (CPM/BIOPSY) MEAN +/- STD [2]: 17244 +/− 4259 CPM/BIOPSY
- DNA synthesis AS % OF CONTROL [2]: 182%
- synergy of magnet with lactic acid in the dermis (Example 7, combinations of magnet with lactic acid): no synergy
- effect on dermal proliferation (Example 7, lactic acid alone): significant stimulation
- activity at 200 µM (Sus scrofa, Example 7, dermis, 0.2 mM LA, no magnet, read-out: DNA synthesis AS % OF CONTROL): 162%
